Test results taken from PMC6149722, “Comparison of the Binding of Reversible Inhibitors to Human Butyrylcholinesterase and Acetylcholinesterase: A Crystallographic, Kinetic and Calorimetric Study” (Molecules : A Journal of Synthetic Chemistry and Natural …, 2017).
Counter-ions that a name gives are not always drawn. Like-named read-outs stand apart in the source and are kept apart here.

Legend:
BChE [1] = target: T1, BChE (Homo sapiens, UniProt P06276); experiment: Inhibition of second-order substrate hydrolysis by BChE (inhibition constants KI); type: biochemical
T1 construct: Purified human plasma wild-type BChE was a gift from Dr. Oksana Lockridge; tissue gift from Dr. Oksana Lockridge (University of Nebraska Medical Center); host or cells: human plasma
Method: To further compare the binding sites of inhibitors with AChE and BChE, we employed an inhibitor competition assay. This assay is designed to detect any ternary complex formed when two inhibitors are added to AChE or BChE simultaneously. The assay is conducted with a substrate like acetylthiocholine whose second-order hydrolysis at low substrate concentrations is diffusion controlled and thus is inhibited by ligands that bind to either the A-site or the P-site (see Figure 7A below). Individual inhibition constants KI were obtained by plotting the ratios of the hydrolysis rate constant kE at various concentrations of one inhibitor (kE + I) to kE in the absence of inhibitor (kE [I] = 0) against inhibitor concentration. Inhibitor competition was then assessed by determining ratios of kE at a fixed concentration ([I1]) of inhibitor 1 and various concentrations ([I2]) of inhibitor 2 (kE + I2) to kE at the same [I1] in the absence of [I2] (kE [I2] = 0) and plotting these ratios against [I2]. These plots were analyzed with Equation (5) (described in the Materials and Methods Section 4.4) to obtain the relative affinity of I1 in its binary complex with enzyme E to I1 in a ternary complex with I2 and E (K12/K1). […].
For enzyme kinetics experiments, purified recombinant hAChE (~1500 units as determined by the supplier) was purchased from Sigma Aldrich (St. Louis, MO, USA). The AChE concentration was calculated using the assumption of 450 units/nmol (4.8 ∆A412/(min × nM)). Purified human plasma wild-type BChE was a gift from Dr. Oksana Lockridge (University of Nebraska Medical Center, Omaha, NE, USA). BChE concentration was calculated assuming 62.5 unit/nmol (0.94 ∆A412/(min × nM)). As defined previously, […] is the amount of BChE that gives 1.0 ∆A/min in the presence of 1.6 × 10^−4 M butyrylthiocholine in a 1.5 mL assay.
Inhibition constants for inhibitors of BChE were determined using a modification of a previously described method. Briefly, varying amounts of inhibitor (in 50 μL of 50% CH3CN(aq)) were added to 1.60 mL of buffer (0.09 M phosphate buffer, pH 8.0), 5,5′-dithio-bis (2-nitrobenzoic acid) (0.32 mM), and butyrylthiocholine substrate (5 μM) in a quartz cuvette of 1 cm path length, and the mixture was zeroed at 412 nm. The reaction was initiated by the addition of 50 μL of BChE (to 0.68 nM) in 0.1% aqueous gelatin. Assays were conducted at 23 °C. The absorbance (A), reflecting the cumulative hydrolysis of the substrate, was recorded every 5–20 s using an Ultraspec 2100 pro ultra violet (UV)-visible spectrophotometer (Fisher Scientific, Toronto, ON, Canada) equipped with Swift II application software. […]
In Equation (1), A412 is absorbance, [E]tot is the total enzyme concentration, kobs = kE[E]tot, and ΔA412 = A412(final) − A412(t = 0). […]

hAChE [2] = target: T2, hAChE (Homo sapiens, UniProt P22303); experiment: biochemical; type: binding; details: for n (±SD), binding stoichiometry / ΔG (±SD), Gibbs free energy of binding / ΔH (±SD), binding heat: hAChE, ITC, 25 °C, pH 8.0
BChE [3] = target: T1, BChE; details: in the presence of thioflavin T; cited from earlier work
BChE [4] = target: T1, BChE; parameters: method as in PMID 22901043; details: cited from earlier work
hBChE [5] = target: hBChE (Homo sapiens, UniProt P06276, N45Q/N483Q/N509Q/N514Q); experiment: biochemical; type: binding; details: for n (±SD), binding stoichiometry / ΔG (±SD), Gibbs free energy of binding / ΔH (±SD), binding heat: hBChE, ITC, 25 °C, pH 7.4
hBChE [6] = experiment: biochemical; type: binding; details: ITC KD, hAChE vs hBChE
AChE [7] = details: cited from earlier work
hBChE [8] = details: specificity for BChE; cited from earlier work
BChE [9] = target: T1, BChE; type: biochemical; details: binding site competition ratio of each inhibitor (I1) in the presence of decamethonium (I2), >> 1 denotes competition at the same site
Method: This assay is designed to detect any ternary complex formed when two inhibitors are added to AChE or BChE simultaneously [15, 23, 34, 41, 42, 43]. The assay is conducted with a substrate like acetylthiocholine whose second-order hydrolysis at low substrate concentrations is diffusion controlled and thus is inhibited by ligands that bind to either the A-site or the P-site [15] […] Inhibitor competition was then assessed by determining ratios of kE at a fixed concentration ([I1]) of inhibitor 1 and various concentrations ([I2]) of inhibitor 2 (kE + I2) to kE at the same [I1] in the absence of [I2] (kE [I2] = 0) and plotting these ratios against [I2]. These plots were analyzed with Equation (5) (described in the Materials and Methods Section 4.4) to obtain the relative affinity of I1 in its binary complex with enzyme E to I1 in a ternary complex with I2 and E (K12/K1).
Determining rates of substrate hydrolysis in the presence of two inhibitors provides information that indicates whether these inhibitors are interacting with the same or different enzyme binding sites [15]. […]
In this equation, K1, K2, and K12 are the equilibrium dissociation constants for I1 with E, I2 with E, and I1 with the E I2 complex, respectively. Individual inhibition constants (e.g., K2) could be determined from Equation (5) with [I1] fixed at 0. […]

hAChE [10] = target: T2, hAChE; details: read-out: AChE KI, recalculated from data obtained in ref 23; cited from earlier work
BChE [11] = details: cited from earlier work
AChE [12] = details: cited from earlier work; remark: listed apart in the source

T2 sequence (P22303 32-574): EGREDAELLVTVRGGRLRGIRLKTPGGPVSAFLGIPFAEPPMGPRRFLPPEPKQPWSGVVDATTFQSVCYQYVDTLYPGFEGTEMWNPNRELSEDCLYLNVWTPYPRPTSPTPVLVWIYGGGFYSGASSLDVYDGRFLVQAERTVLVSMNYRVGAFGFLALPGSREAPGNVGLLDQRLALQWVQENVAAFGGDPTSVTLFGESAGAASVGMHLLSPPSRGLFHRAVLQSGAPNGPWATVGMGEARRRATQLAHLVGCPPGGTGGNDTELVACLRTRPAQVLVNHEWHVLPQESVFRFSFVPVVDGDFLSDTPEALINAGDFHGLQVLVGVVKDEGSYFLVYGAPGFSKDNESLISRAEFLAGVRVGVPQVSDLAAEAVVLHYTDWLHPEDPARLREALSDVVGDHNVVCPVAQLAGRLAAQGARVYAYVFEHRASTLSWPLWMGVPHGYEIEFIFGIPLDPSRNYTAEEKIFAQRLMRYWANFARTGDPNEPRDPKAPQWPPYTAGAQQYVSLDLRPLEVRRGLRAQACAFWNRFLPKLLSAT
Chain of hBChE (Homo sapiens, UniProt P06276, N45Q/N483Q/N509Q/N514Q) (P06276 29-557 N45Q/N483Q/N509Q/N514Q): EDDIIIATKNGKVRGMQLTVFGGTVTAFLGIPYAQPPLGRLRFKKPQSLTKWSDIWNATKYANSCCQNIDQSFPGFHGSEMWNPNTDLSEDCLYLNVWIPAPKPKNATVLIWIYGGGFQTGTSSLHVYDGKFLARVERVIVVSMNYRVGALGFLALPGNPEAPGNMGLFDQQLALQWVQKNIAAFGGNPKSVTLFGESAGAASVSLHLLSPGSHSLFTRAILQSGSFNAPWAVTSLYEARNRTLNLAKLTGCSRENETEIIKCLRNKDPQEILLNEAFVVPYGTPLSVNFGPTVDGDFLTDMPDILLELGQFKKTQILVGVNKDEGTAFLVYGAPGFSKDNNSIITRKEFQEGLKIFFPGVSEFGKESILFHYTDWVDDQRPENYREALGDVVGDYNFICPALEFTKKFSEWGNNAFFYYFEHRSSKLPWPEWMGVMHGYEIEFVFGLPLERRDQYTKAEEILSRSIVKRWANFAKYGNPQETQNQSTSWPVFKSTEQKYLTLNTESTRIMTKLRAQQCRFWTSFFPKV
T1 sequence (P06276 29-602): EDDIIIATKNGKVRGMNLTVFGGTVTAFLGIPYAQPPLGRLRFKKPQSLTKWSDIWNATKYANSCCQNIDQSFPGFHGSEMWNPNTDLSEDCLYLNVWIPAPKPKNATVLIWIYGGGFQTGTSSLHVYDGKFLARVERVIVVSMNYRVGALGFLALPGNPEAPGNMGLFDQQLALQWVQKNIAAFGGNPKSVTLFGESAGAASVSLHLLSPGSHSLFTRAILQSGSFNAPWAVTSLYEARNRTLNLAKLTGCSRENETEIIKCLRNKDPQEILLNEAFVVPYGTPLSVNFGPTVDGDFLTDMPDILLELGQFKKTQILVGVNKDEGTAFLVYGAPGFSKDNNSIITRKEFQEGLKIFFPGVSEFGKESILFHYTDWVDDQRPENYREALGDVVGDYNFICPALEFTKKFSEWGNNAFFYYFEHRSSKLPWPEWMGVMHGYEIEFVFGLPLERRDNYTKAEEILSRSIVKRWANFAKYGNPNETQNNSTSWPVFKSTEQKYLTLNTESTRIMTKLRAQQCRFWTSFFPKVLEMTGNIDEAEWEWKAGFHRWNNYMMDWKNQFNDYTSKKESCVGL

SMILES: C[N+](C)(C)CCCCCCCCCC[N+](C)(C)C [Decamethonium, decamethonium bromide]
- Ki (BChE [1]): 4.5 ± 0.2 µM

SMILES: CC[N+](C)(C)c1cccc(O)c1 [Edrophonium, edrophonium chloride]
- n (±SD), binding stoichiometry (hAChE [2]): 0.8 ± 0.3
- ΔG (±SD), Gibbs free energy of binding (hAChE [2]): -8.03 ± 0.19 kcal/mol
- ΔH (±SD), binding heat (hAChE [2]): -6.31 ± 1.89 kcal/mol
- n (±SD), binding stoichiometry (hAChE [2]; listed as edrophonium): ~ 1
- BChE K12/K1 competition class (BChE [3]): PC (intermediate ratios indicate partial competition (PC))
- Ki (BChE [4]; BChE, updated from data in ref 23): 49 ± 3 µM
- Ki (BChE [4]; read-out: BChE KI, hBChE, recalculated from data obtained in ref 23): 49 ± 3 µM
- Kd (hBChE [5]): 27.2 ± 2.4 µM
- n (±SD), binding stoichiometry (hBChE [5]): 0.9 ± 0.1
- ΔG (±SD), Gibbs free energy of binding (hBChE [5]): -6.24 ± 0.072 kcal/mol
- ΔH (±SD), binding heat (hBChE [5]): -3.01 ± 0.406 kcal/mol
- n (±SD), binding stoichiometry (hBChE [5]; listed as edrophonium): ~ 1
- difference in KD values between AChE and BChE (hBChE [6]): ~20 fold
- AChE K12/K1 (AChE [7]; binding site competition ratio in the presence of thioflavin T, recalculated from data obtained in ref 23): 2.9 ± 0.2
- AChE K12/K1 competition class (AChE [7]; in the presence of thioflavin T): NC (A K12/K1 ratio of ~1 indicates no competition at binding sites (NC))

SMILES: CCN(CC)C(C)CN1c2ccccc2Sc2ccccc21 (centres unmarked) [Ethopropazine, ethopropazine hydrochloride]
- difference in Ki between hAChE and hBChE (hBChE [8]): 9000 fold
- Kd (hBChE [5]): 1.1 ± 0.1 µM
- n (±SD), binding stoichiometry (hBChE [5]): 1.0 ± 0.1
- ΔG (±SD), Gibbs free energy of binding (hBChE [5]): -8.15 ± 0.048 kcal/mol
- ΔH (±SD), binding heat (hBChE [5]): -10.4 ± 1.53 kcal/mol
- n (±SD), binding stoichiometry (hBChE [5]; listed as ethopropazine): ~ 1
- difference in KD values between AChE and BChE (hBChE [6]): ~20 fold

SMILES: Cc1ccc2c(c1)sc(-c1ccc(N(C)C)cc1)[n+]2C [Thioflavin-T, ThT chloride]
- Kd (hAChE [2]): 17.7 µM
- n (±SD), binding stoichiometry (hAChE [2]): 1
- ΔG (±SD), Gibbs free energy of binding (hAChE [2]): -6.5 kcal/mol
- ΔH (±SD), binding heat (hAChE [2]): -5.66 kcal/mol
- n (±SD), binding stoichiometry (hAChE [2]; listed as ThT): ~ 1
- K12/K1 (BChE [9]): >200
- Kd (hBChE [5]): 2.6 ± 0.5 µM
- n (±SD), binding stoichiometry (hBChE [5]): 2.2 ± 0.1
- ΔG (±SD), Gibbs free energy of binding (hBChE [5]): -7.65 ± 0.14 kcal/mol
- ΔH (±SD), binding heat (hBChE [5]): -2.72 ± 0.14 kcal/mol
- difference in KD values between AChE and BChE (hBChE [6]): about 7 fold
- Ki (hAChE [10]): 3.9 ± 0.4 µM
- Ki (BChE [1]; BChE 0.68 nM, butyrylthiocholine 5 µM, second-order dependence on inhibitor concentration, read-out: KI (fitted with Equation (4))): 1.61 ± 0.11 µM
- KII (fitted with Equation (4)) (BChE [1]; BChE 0.68 nM, butyrylthiocholine 5 µM, second-order term): 5.84 ± 0.16 µM^2
- KI12/KI1 (maximum for the affinity in the binary complex relative to that in the ternary complex) (BChE [1]; BChE, two molecules of inhibitor, maximum reached when KI1 = KI2): 0.56 ± 0.04

SMILES: NCCC1=CC2Cc3nc4cc(Cl)ccc4c(N)c3C(C1)C2 (centres unmarked) [huprine 19]
- IC50 (BChE [11]): 0.9 µM

SMILES: Nc1c2c(nc3cc(Cl)ccc13)C[C@H]1C=C(CCO)C[C@@H]2C1 [huprine W]
- IC50 (AChE [12]): 0.0011 µM
- IC50 (BChE [11]): 1.2 µM
